{"source": "patent US6369035B1", "about": "“3,6-hemiketals from the class of 9A-azalides” (Pliva, farmaceutska industrja, dionicko …, priority 1997, dated 2002)", "key": {"B. cereus ATCC 11778": {"system": "B. cereus ATCC 11778", "test": "Antibacterial in vitro activity, MIC by double dilution, standard strains", "format": "cell-based", "details": "37° C., 18 hours", "experimental": "(§1) Antibacterial in vitro activity of the novel compounds of the general formula (I) and their pharmaceutically acceptable addition salts with inorganic or organic acids on a series of standard test-microorganisms was determined in a Mueller-Hinton medium (Difco-Laboratories, Detroit, Mich.) by a conventional method of double dilution in accordance with recommendations of NCCLS (The National Committee for Clinical Laboratory Standards). Each test microorganism was inoculated to the final inoculum size of 5×10^5 cfu/ml and the incubation was carried out in an […] manner at 37° C. during 18 hours. The MIC in the liquid medium was defined as the lowest concentration of an antibacterial agent inhibiting visible growth in microdilutional containers. Control organisms were obtained from ATCC (The American Type Culture Collection). All standards were identified by a standard procedure and were storaged at −70° C."}, "[1]": {"system": "Bacillus subtilis ATCC 6633", "test": "Antibacterial in vitro activity, MIC by double dilution, standard strains", "format": "cell-based", "details": "37° C., 18 hours", "experimental": "as §1"}, "[2]": {"system": "Escherichia coli ATCC 10536", "test": "Antibacterial in vitro activity, MIC by double dilution, standard strains", "format": "cell-based", "details": "37° C., 18 hours", "experimental": "as §1"}, "M. luteus ATCC 9341": {"system": "M. luteus ATCC 9341", "test": "Antibacterial in vitro activity, MIC by double dilution, standard strains", "format": "cell-based", "details": "37° C., 18 hours", "experimental": "as §1"}, "[3]": {"system": "Micrococcus flavus ATCC 10240", "test": "Antibacterial in vitro activity, MIC by double dilution, standard strains", "format": "cell-based", "details": "37° C., 18 hours", "experimental": "as §1"}, "S. aureus ATCC 29213": {"system": "S. aureus ATCC 29213", "test": "Antibacterial in vitro activity, MIC by double dilution, standard strains", "format": "cell-based", "details": "37° C., 18 hours", "experimental": "as §1"}, "[4]": {"system": "S. eperidermidis ATCC 12228", "test": "Antibacterial in vitro activity, MIC by double dilution, standard strains", "format": "cell-based", "details": "Mueller-Hinton medium, 37° C., 18 hours", "experimental": "as §1"}, "[5]": {"system": "Staphylococcus aureus ATCC 6538 P", "test": "Antibacterial in vitro activity, MIC by double dilution, standard strains", "format": "cell-based", "details": "37° C., 18 hours", "experimental": "as §1"}, "[6]": {"system": "Streptococcus faecalis ATCC 8043", "test": "Antibacterial in vitro activity, MIC by double dilution, standard strains", "format": "cell-based", "details": "37° C., 18 hours", "experimental": "as §1"}, "[7]": {"system": "Enterococcus sp. clinical isolates (35)", "test": "Antibacterial in vitro activity, MIC, clinical isolates", "format": "cell-based", "details": "35 clinical isolates", "experimental": "as §1"}, "[8]": {"system": "Haemophilus influenzae clinical isolates (40)", "test": "Antibacterial in vitro activity, MIC, clinical isolates", "format": "cell-based", "details": "40 clinical isolates", "experimental": "as §1"}, "[9]": {"system": "S. epidermidis clinical isolates (20)", "test": "Antibacterial in vitro activity, MIC, clinical isolates", "format": "cell-based", "details": "20 clinical isolates", "experimental": "as §1"}, "[10]": {"system": "Staph. aureus. clinical isolates (77)", "test": "Antibacterial in vitro activity, MIC, clinical isolates", "format": "cell-based", "details": "77 clinical isolates", "experimental": "as §1"}, "[11]": {"system": "Streptococcus pneumoniae clinical isolates (25)", "test": "Antibacterial in vitro activity, MIC, clinical isolates", "format": "cell-based", "details": "25 clinical isolates", "experimental": "as §1"}, "[12]": {"details": "rat, in vivo, po, 20 mg/kg"}}, "note": "Like-named read-outs stand apart in the source and are kept apart here.", "data": [{"compound": "CC[C@H]1OC(=O)[C@H](C)[C@@H](O[C@H]2C[C@@](C)(OC)[C@@H](O)[C@H](C)O2)[C@H](C)[C@@H](O[C@@H]2O[C@H](C)C[C@H](N(C)C)[C@H]2O)[C@](C)(O)C[C@@H](C)CN(C)[C@H](C)[C@@H](O)[C@]1(C)OC", "note": "[12-O-Methyl-azithromycin]", "values": [{"measurement": "MIC", "setting": "B. cereus ATCC 11778; Mueller-Hinton medium", "value": 0.25, "unit": "µg/mL"}, {"measurement": "MIC", "setting": "[1]; Mueller-Hinton medium", "value": 1, "unit": "µg/mL"}, {"measurement": "MIC", "setting": "[2]; Mueller-Hinton medium", "value": 0.5, "unit": "µg/mL"}, {"measurement": "MIC", "setting": "M. luteus ATCC 9341; Mueller-Hinton medium", "value": 0.03, "unit": "µg/mL"}, {"measurement": "MIC", "setting": "[3]; Mueller-Hinton medium", "value": 0.12, "unit": "µg/mL"}, {"measurement": "MIC", "setting": "S. aureus ATCC 29213; Mueller-Hinton medium", "value": 0.25, "unit": "µg/mL"}, {"measurement": "MIC", "setting": "[4]", "value": 0.03, "unit": "µg/mL"}, {"measurement": "MIC", "setting": "[5]; Mueller-Hinton medium", "value": 0.25, "unit": "µg/mL"}, {"measurement": "MIC", "setting": "[6]; Mueller-Hinton medium", "value": 0.25, "unit": "µg/mL"}, {"measurement": "MIC 50%", "setting": "[7]", "value": 0.5, "unit": "µg/mL"}, {"measurement": "MIC 90%", "setting": "[7]", "value": 8, "unit": "µg/mL"}, {"measurement": "MIC Range", "setting": "[7]", "value": "0.12 to 8", "unit": "µg/mL"}, {"measurement": "MIC 50%", "setting": "[8]", "value": 0.12, "unit": "µg/mL"}, {"measurement": "MIC 90%", "setting": "[8]", "value": 0.25, "unit": "µg/mL"}, {"measurement": "MIC Range", "setting": "[8]", "value": "0.06 to 0.5", "unit": "µg/mL"}, {"measurement": "MIC 50%", "setting": "[9]", "value": 0.25, "unit": "µg/mL"}, {"measurement": "MIC 90%", "setting": "[9]", "value": 4, "unit": "µg/mL"}, {"measurement": "MIC Range", "setting": "[9]", "value": "0.12 to 8", "unit": "µg/mL"}, {"measurement": "MIC 50%", "setting": "[10]", "value": 0.25, "unit": "µg/mL"}, {"measurement": "MIC 90%", "setting": "[10]", "value": 1, "unit": "µg/mL"}, {"measurement": "MIC Range", "setting": "[10]", "value": "0.12 to 2", "unit": "µg/mL"}, {"measurement": "MIC 50%", "setting": "[11]", "value": 0.03, "unit": "µg/mL"}, {"measurement": "MIC 90%", "setting": "[11]", "value": 0.12, "unit": "µg/mL"}, {"measurement": "MIC Range", "setting": "[11]", "value": "0.03 to 0.12", "unit": "µg/mL"}, {"measurement": "Cmax (maximum substance concentration in serum)", "setting": "[12]", "value": 248.8, "unit": "ng/mL"}, {"measurement": "absorption in the serum", "setting": "[12]", "value": "very fast absorbed"}, {"measurement": "half-life", "setting": "[12]", "value": 5.2, "unit": "h"}, {"measurement": "time at which the maximum substance concentration was achieved", "setting": "[12]", "value": 2, "unit": "h"}, {"measurement": "time of secondary maximum after the application", "setting": "[12]", "value": 4, "unit": "h"}, {"measurement": "total AUC", "setting": "[12]", "value": 1993.4, "unit": "ng·h/mL"}]}, {"compound": "CC[C@H]1OC(=O)[C@H](C)[C@@H](O[C@H]2C[C@@](C)(OC)[C@@H](O)[C@H](C)O2)[C@H](C)[C@@H](O[C@@H]2O[C@H](C)C[C@H](N(C)C)[C@H]2O)[C@](C)(O)C[C@@H](C)CN(C)[C@H](C)[C@@H](O)[C@]1(C)O", "note": "[Azithromycin, 9-deoxo-9a-methyl-9a-aza-9a-homoerythromycin, reference compound]", "values": [{"measurement": "MIC", "setting": "B. cereus ATCC 11778; Bacillus cereus, ATCC11778, Mueller-Hinton medium, read-out: MIC", "value": 1, "unit": "µg/mL"}, {"measurement": "MIC", "setting": "[1]; ATCC6633, Mueller-Hinton medium, read-out: MIC", "value": 4, "unit": "µg/mL"}, {"measurement": "MIC", "setting": "[2]; ATCC10536, Mueller-Hinton medium, read-out: MIC", "value": 1, "unit": "µg/mL"}, {"measurement": "MIC", "setting": "M. luteus ATCC 9341; Micrococcus luteus, ATCC9341, Mueller-Hinton medium, read-out: MIC", "value": 0.06, "unit": "µg/mL"}, {"measurement": "MIC", "setting": "[3]; ATCC10240, Mueller-Hinton medium, read-out: MIC", "value": 0.5, "unit": "µg/mL"}, {"measurement": "MIC", "setting": "S. aureus ATCC 29213; Staphylococcus aureus, ATCC29213, Mueller-Hinton medium, read-out: MIC", "value": 0.25, "unit": "µg/mL"}, {"measurement": "MIC", "setting": "[4]; read-out: MIC", "value": 0.5, "unit": "µg/mL"}, {"measurement": "MIC", "setting": "[5]; ATCC6538, Mueller-Hinton medium, read-out: MIC", "value": 1, "unit": "µg/mL"}, {"measurement": "MIC", "setting": "[6]; Enterococcus faecalis, ATCC8043, Mueller-Hinton medium, read-out: MIC", "value": 0.5, "unit": "µg/mL"}, {"measurement": "MIC50", "setting": "[7]", "value": 1, "unit": "µg/mL"}, {"measurement": "MIC90", "setting": "[7]", "value": 16, "unit": "µg/mL"}, {"measurement": "MIC Range", "setting": "[7]", "value": "0.25 to 16", "unit": "µg/mL"}, {"measurement": "MIC50", "setting": "[8]", "value": 0.25, "unit": "µg/mL"}, {"measurement": "MIC90", "setting": "[8]", "value": 0.5, "unit": "µg/mL"}, {"measurement": "MIC Range", "setting": "[8]", "value": "0.12 to 0.5", "unit": "µg/mL"}, {"measurement": "MIC Range", "setting": "[9]", "value": "0.25 to 16", "unit": "µg/mL"}, {"measurement": "MIC50", "setting": "[9]; Staphylococcus epidermidis", "value": 0.25, "unit": "µg/mL"}, {"measurement": "MIC90", "setting": "[9]; Staphylococcus epidermidis", "value": 8, "unit": "µg/mL"}, {"measurement": "MIC Range", "setting": "[10]", "value": "0.25 to 8", "unit": "µg/mL"}, {"measurement": "MIC50", "setting": "[10]; Staphylococcus aureus", "value": 1, "unit": "µg/mL"}, {"measurement": "MIC90", "setting": "[10]; Staphylococcus aureus", "value": 4, "unit": "µg/mL"}, {"measurement": "MIC50", "setting": "[11]", "value": 0.05, "unit": "µg/mL"}, {"measurement": "MIC90", "setting": "[11]", "value": 0.12, "unit": "µg/mL"}, {"measurement": "MIC Range", "setting": "[11]", "value": "0.03 to 0.25", "unit": "µg/mL"}]}]}
